Test results as given in ChEMBL document CHEMBL1201862, “PubChem BioAssay data set” (2004).
The source made the active and inactive calls.

How the values were obtained:
[1] = target: Mu-type opioid receptor (Homo sapiens, UniProt P35372); type: functional, cell-based;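 note: U2OS cells with beta-arrestin recruitment to OPRM1 by beta-gal complementation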
[2] = target: 5-hydroxytryptamine receptor 2A (Mus musculus, UniProt P35363); type: functional, cell-based;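 note: CHO-K1 cells with tagged receptor and beta-arrestin; agonist potency measured as compound-induced activation of the receptor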
[3] = target: T1, Replicative DNA helicase DnaB (Mycobacterium tuberculosis, UniProt P9WMR3); assay: DnaB intein splicing inhibitors, dose response, biochemical, cell-free fluorescence (AID 449749); type: functional
T1 sequence (P9WMR3 whole entry): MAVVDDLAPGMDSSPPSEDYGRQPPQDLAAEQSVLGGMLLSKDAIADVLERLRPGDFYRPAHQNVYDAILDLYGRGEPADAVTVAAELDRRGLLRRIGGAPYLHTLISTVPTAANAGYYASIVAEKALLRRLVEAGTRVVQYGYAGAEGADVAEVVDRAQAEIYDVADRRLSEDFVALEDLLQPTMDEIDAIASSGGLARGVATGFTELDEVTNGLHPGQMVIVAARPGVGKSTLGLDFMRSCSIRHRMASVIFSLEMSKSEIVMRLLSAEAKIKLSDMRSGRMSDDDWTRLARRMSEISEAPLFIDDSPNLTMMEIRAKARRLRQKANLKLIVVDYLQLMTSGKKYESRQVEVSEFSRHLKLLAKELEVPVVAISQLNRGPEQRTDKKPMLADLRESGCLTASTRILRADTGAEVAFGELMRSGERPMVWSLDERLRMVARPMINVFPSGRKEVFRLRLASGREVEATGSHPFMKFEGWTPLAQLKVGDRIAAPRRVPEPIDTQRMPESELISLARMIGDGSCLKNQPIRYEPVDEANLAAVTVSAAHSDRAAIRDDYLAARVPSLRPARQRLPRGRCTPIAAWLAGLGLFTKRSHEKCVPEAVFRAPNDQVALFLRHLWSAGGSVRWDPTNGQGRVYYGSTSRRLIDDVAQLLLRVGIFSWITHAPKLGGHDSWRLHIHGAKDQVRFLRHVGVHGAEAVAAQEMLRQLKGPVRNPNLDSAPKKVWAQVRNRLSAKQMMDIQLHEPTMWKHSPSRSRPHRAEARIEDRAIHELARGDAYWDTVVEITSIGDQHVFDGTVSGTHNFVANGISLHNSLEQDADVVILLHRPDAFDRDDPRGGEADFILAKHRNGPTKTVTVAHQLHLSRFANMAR

[4] = target: T2, Protein RecA (Mycobacterium tuberculosis, UniProt P9WHJ3); assay: Fluorescence Cell-Free Homogeneous Dose Retest to Identify Inhibitors of RecA-Intein Splicing Activity. [Related pubchem assays (depositor defined):AID2097, AID2223, AID489010, AID492950]; type: functional
T2 sequence (P9WHJ3 whole entry): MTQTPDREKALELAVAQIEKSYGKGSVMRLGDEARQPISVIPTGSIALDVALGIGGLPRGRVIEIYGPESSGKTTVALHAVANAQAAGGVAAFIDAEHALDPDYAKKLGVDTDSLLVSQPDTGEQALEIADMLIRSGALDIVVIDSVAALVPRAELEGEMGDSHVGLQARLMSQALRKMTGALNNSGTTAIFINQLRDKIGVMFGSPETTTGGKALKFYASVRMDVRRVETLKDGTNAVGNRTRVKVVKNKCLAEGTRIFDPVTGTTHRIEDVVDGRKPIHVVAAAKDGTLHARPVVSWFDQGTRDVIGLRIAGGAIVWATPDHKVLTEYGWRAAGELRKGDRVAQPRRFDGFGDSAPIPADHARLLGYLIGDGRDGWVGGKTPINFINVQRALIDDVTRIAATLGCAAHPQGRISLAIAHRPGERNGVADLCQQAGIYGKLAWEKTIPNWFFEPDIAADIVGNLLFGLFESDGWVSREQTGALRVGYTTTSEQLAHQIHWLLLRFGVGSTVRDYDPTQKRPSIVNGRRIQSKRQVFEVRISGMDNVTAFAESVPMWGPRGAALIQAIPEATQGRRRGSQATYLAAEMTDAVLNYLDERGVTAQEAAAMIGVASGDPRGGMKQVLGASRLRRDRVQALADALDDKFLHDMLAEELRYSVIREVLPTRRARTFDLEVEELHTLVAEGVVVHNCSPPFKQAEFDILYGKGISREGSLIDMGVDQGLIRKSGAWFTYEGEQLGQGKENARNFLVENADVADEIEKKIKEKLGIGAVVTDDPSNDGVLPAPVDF

[5] = target: Genome polyprotein (dengue virus type 2, UniProt P29990); assay: flavivirus cap methylation enzyme inhibition – biochemical, confirmation dose response, primary screen (AID 588689); type: functional
[6] = target: Mitochondrial peptide methionine sulfoxide reductase (Bos taurus, UniProt P54149); assay: Absorbance-based biochemical high throughput dose response assay for activators of Methionine sulfoxide reductase A (MsrA).; type: functional
[7] = target: Matrix metalloproteinase-14 (Homo sapiens, UniProt P50281); assay: Dose Response confirmation of uHTS hits for a small molecule inhibitors of MT1-MMP activation in a fluorescence assay set 2.; type: functional
[8] = target: Caspase-6 (Homo sapiens, UniProt P55212); assay: inhibition of CASP6 peptide cleavage – biochemical, VEID-R110 fluorescence, cherry-pick, dose response (AID 720632)
[9] = A549 cell cytotoxicity, dose response, cytotoxicity control, plate reader, cherry-pick, antagonist series (AID 743412); type: functional, cell-based
[10] = toxicity toward HepG2 liver cells – cell-based, plate reader, cherry-pick, antagonist series, cytotoxicity control, dose response (AID 743416); type: functional
[11] = viability loss in HEK293 cells – cell-based, plate reader, cherry-picked samples, cytotoxicity control, dose response (AID 743446); type: functional
[12] = cells; type: functional, cell-based
[13] = cells; type: functional, cell-based; remark: listed apart in the source
[14] = tested on: INS1; assay: INS-1E survival protection against cytokine death – cell-based, luminescence, retest, dose response (AID 449756); type: functional; conditions: Rattus norvegicus;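 note: cell death triggered by IL-1 beta plus TNF-alpha plus IFN-gamma mixture; protective hits raise ATP signal compared with cytokine alone wells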
[15] = HGIII-sPLA2 enzyme inhibition potency – biochemical, QFRET, IC50, dose response (AID 743457);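 note: green fluorescence rise as the enzyme cleaves BODIPY PC-A2 in liposomes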
[16] = target: Beta-galactosidase (Escherichia coli, UniProt Q8VNN2); assay: Dose response counterscreen for EBI2 assay utilizing the enzyme, b-galactosidase.; type: functional
[17] = target: Galanin receptor type 3 (Homo sapiens, UniProt O60755); assay: Fluorescence-based cell-based primary high throughput dose response assay to identify antagonists of the Galanin Receptor 3 (GalR3).; type: functional
[18] = target: Paired box protein Pax-8 (Homo sapiens, UniProt Q06710); assay: PAX8 transcriptional activity inhibition in RMG-I – RMG-I cells, luciferase, cherry-pick, dose response (AID 687027); type: functional, cell-based;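 note: luciferase reporter driven by Pax8 target thyroperoxidase promoter measured by SteadyGlo luminescence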
[19] = general cell-killing toxicity readout – plate reader, dry powder samples, cytotoxicity control for PAX8 inhibitor project, dose response (AID 743021); type: functional, cell-based
[20] = tested on: Cryptococcus neoformans; assay: PubChem AID 686997; type: functional, organism-based
[21] = target: Fructose-bisphosphate aldolase (Mycobacterium tuberculosis, UniProt P9WQA3); assay: Fluorescence-based biochemical high throughput dose response assay for inhibitors of the fructose-bisphosphate aldolase (FBA) of M. tuberculosis.; type: functional
Fructose-bisphosphate aldolase, sequence (P9WQA3 whole entry): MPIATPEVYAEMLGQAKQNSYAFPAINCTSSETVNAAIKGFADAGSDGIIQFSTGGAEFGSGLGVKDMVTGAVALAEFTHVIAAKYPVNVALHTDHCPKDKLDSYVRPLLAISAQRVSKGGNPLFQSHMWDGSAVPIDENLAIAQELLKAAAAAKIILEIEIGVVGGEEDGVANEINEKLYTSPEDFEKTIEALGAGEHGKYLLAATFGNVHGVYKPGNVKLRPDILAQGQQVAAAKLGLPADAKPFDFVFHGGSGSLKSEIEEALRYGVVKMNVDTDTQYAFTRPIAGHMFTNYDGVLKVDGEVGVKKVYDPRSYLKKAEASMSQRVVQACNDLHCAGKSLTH

Mitochondrial peptide methionine sulfoxide reductase, sequence (P54149 whole entry): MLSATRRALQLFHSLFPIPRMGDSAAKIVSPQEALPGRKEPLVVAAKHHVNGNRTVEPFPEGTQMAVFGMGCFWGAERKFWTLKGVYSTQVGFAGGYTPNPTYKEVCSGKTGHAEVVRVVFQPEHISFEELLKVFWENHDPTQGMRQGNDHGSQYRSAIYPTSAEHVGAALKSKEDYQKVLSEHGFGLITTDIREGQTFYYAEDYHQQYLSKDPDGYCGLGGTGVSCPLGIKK
Paired box protein Pax-8, sequence (Q06710 whole entry): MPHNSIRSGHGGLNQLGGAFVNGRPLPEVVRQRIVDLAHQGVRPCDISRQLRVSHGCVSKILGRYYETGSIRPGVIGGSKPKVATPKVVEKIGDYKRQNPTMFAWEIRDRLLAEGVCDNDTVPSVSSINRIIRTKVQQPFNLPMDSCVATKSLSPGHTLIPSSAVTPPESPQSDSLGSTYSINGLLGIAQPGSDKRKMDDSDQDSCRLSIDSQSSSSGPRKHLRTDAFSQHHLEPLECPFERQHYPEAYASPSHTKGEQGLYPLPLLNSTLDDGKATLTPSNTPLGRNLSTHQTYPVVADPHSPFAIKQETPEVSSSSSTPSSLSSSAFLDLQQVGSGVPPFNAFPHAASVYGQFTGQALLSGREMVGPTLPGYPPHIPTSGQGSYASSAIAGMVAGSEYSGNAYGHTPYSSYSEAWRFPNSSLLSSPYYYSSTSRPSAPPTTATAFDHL
5-hydroxytryptamine receptor 2A, sequence (P35363 whole entry): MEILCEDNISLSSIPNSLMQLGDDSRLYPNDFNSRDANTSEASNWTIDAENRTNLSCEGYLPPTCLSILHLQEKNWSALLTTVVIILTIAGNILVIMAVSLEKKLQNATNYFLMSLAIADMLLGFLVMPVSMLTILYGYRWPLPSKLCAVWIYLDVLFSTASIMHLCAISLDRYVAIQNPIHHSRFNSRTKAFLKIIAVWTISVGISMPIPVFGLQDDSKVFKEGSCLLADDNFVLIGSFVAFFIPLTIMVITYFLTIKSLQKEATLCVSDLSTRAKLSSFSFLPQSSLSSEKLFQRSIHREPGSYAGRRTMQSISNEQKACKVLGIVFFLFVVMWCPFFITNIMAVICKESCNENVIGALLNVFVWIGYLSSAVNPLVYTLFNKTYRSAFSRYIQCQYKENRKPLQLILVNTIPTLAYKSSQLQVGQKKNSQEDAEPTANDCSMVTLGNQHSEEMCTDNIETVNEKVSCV
Galanin receptor type 3, sequence (O60755 whole entry): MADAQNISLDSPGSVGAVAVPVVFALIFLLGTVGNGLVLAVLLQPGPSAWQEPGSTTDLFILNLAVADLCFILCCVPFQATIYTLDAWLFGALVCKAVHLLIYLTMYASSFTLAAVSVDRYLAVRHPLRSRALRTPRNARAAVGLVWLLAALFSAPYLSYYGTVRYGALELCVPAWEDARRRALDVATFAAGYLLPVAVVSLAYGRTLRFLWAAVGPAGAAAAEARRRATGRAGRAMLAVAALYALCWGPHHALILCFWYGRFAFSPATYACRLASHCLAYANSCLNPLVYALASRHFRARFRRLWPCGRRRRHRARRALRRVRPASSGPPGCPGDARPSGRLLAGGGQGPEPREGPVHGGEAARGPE
Caspase-6, sequence (P55212 24-179 limits assumed): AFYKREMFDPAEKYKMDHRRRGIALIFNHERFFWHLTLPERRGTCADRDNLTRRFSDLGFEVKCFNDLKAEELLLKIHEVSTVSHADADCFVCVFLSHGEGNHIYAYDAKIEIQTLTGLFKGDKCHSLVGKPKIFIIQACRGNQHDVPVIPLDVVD
Caspase-6, sequence (P55212 194-293 limits assumed): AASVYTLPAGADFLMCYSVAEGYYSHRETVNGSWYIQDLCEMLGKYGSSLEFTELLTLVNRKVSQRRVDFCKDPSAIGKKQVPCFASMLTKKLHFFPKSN
Genome polyprotein, sequence (P29990 2492-3391 limits assumed): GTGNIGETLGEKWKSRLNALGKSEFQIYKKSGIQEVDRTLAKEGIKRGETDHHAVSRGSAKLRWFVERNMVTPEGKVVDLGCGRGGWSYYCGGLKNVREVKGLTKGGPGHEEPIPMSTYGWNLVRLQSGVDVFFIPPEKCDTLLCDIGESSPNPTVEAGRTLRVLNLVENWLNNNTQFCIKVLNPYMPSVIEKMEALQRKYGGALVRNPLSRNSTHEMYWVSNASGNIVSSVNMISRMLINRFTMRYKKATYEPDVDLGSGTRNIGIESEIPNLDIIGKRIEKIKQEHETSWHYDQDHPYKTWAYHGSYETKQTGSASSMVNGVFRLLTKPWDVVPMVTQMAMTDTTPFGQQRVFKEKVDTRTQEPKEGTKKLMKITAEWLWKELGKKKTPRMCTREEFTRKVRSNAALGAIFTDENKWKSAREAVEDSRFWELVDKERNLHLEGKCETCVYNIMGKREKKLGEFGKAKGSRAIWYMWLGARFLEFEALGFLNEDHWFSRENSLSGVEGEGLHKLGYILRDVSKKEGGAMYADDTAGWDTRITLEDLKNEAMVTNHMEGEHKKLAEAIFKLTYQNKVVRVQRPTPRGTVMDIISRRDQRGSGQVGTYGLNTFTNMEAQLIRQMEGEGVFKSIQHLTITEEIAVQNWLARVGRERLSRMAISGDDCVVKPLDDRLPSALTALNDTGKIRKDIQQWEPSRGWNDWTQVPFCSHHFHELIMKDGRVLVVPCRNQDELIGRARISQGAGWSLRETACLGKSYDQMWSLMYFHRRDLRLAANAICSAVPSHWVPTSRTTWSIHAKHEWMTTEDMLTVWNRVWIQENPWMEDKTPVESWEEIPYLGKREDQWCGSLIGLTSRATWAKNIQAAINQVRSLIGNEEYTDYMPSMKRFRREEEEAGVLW
Mu-type opioid receptor, sequence (P35372 whole entry): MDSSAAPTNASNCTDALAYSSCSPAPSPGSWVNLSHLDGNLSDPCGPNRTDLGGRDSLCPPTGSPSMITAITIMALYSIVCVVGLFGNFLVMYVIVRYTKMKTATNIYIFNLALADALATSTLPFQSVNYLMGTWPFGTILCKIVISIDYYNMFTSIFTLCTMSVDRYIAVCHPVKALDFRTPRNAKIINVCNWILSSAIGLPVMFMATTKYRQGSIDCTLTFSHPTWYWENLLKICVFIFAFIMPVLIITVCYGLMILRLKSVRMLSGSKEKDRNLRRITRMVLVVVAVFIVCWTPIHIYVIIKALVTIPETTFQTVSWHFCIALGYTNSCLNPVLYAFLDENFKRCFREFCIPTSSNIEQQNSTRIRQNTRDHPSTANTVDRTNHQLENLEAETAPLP
Beta-galactosidase, sequence (Q8VNN2 whole entry): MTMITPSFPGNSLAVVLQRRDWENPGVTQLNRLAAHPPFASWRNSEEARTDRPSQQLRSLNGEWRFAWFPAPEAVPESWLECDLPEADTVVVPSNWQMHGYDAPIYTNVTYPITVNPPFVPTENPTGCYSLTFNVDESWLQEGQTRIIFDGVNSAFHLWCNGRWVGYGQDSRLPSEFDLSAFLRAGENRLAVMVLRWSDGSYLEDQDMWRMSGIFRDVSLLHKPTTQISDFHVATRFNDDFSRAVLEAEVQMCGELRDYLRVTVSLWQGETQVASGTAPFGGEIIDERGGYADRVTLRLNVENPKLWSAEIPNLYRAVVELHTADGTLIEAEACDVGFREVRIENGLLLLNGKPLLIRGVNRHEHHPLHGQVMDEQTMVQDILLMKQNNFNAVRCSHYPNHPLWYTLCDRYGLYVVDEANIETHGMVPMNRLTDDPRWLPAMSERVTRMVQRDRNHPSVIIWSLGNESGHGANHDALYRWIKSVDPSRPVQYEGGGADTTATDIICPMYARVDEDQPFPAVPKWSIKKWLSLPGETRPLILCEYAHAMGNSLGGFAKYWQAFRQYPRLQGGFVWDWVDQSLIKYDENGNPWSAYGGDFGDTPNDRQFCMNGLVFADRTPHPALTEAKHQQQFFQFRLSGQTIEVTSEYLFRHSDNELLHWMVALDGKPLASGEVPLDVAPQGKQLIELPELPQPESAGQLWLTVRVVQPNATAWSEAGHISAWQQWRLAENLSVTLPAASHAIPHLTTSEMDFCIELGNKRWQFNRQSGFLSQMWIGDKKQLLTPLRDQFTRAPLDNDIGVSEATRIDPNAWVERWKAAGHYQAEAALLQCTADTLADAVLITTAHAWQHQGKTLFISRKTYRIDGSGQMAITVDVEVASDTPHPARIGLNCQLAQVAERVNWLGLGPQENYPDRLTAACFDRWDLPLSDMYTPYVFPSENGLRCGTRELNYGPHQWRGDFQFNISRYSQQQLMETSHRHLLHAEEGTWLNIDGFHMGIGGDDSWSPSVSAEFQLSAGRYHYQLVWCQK

In the case of O=C(Cn1cnc2ccccc2c1=O)N1CCN(Cc2ccc3c(c2)OCO3)CC1, the EC50 [1] is reported as 92.5 µM (inactive) and the EC50 [2] is reported as 16.4 µM (inactive).
With C[n+]1c2ccccc2nc2ccc(NCCO)cc21 the AC50 [3] was 19.9 µM (active), the EC50 [4] was 2.38 µM (active) and the IC50 [5] was 18.6 µM (active). For the same molecule, the EC50 [6] was 3.53 µM (active), the IC50 [7] was 10.5 µM (active) and the AC50 [8] was 3.35 µM (active).
For COc1ccc(S(=O)(=O)N2CCOCC2)cc1NC(=O)COc1ccc(C)cc1, the AC50 [9] was 8.06 µM (active), the AC50 [10] was 8.95 µM (active) and the AC50 [11] was 28.1 µM (active).
With CCOC(=O)N1CCN(S(=O)(=O)c2ccc(C(=O)NNc3nc4c(C)cc(C)cc4s3)cc2)CC1 the EC50 [12] was 14.5 µM (active), the EC50 [13] was > 350 µM (not active) and the AC50 [14] was 4.46 µM (active). For the same molecule, the IC50 [15] was 24.6 µM (inactive).
For O=C(/C=C/c1ccc(Cl)cc1)N1CCN(c2c(Cl)cccc2[N+](=O)[O-])CC1, the IC50 [16] was > 80 µM (inactive).
With NC(=O)c1cn(C2OC(CO)C(O)C2O)c2ncnc(N)c12 (stereo unspecified) the IC50 [17] was 1.28 µM (active), the AC50 [18] was < 0.26 µM (active) and the AC50 [19] was 0.591 µM (active).
With COC(=O)C1=C(C)N(Cc2ccc(F)cc2)C(=S)NC1c1ccccc1 (stereo unspecified) the AC50 [20] was > 76 µM (inactive).
For CCc1c(C)c2ccc(OCC(N)=O)cc2oc1=O, the IC50 [21] was > 0.37 µM (active).
